The structures appear in SMILES notation. Some results are limits rather than exact numbers.

Series [1] deals with HT-29 cells (human colon tumour-derived). As to the kind of experiment: SRB growth inhibition assay, HT-29 cells. Type of series: cell-based. The settings on record: 48 hours exposure. How it is done:
(§1) The effect of perfluorinated compounds on the inhibition of tumour cell growth was assessed iii vitro using three human tumour-derived cell lines. Cancer cell lines were tested using the sulphorhodamine B (SRB) assay (which measures cellular protein and is directly related to cell number), which is utilised by the […] to screen anti-cancer agents.
(§2) HT-29 cells (human colon tumour-derived), MCF7 cells (human breast cancer-derived) and PC3 cells (human prostate cancer-derived) were harvested and diluted (to 5×10^4 cells per ml, 1×10^5 cells per ml and 7.5×10^4 cells per ml respectively) in RPMI 1640 medium containing 5% FBS, 2 mM glutamine and. 50 μg/ml gentamicin. 100 μl of cell suspension per well was added to 96 well plates and allowed to attach overnight. Cells were exposed to test compounds dissolved in DMSO in 100 μl of medium to give final drug concentrations of 0, 0.3, 1, 3, 10, 30, 100, 300, 1000 and 3000 μM (and DMSO at 0.25%). (n=6 for each drug concentration). After 48 hours, cells were fixed in 10% trichloroacetic acid (TCA) at 4° C. for 1-2 hours then washed using water and subsequently air-dried. 100 μl SRB solution (0.4%) in 1% Acetic Acid was added to each well, and plates were incubated at room temperature for 10 minutes. Unbound dye was removed by washing with 1% acetic acid. Plates were air-dried and bound stain was solubilised in 10 mM Tris base and the absorbance read at 520 nm.

The subject of series [2] is MCF7 cells (human breast cancer-derived). As to the kind of experiment: SRB growth inhibition assay, MCF7 cells. The settings on record: 48 hours exposure. Type of series: cell-based. The method, then:
as §1, §2

Series [3] relates to PC3 cells (human prostate cancer-derived). As to the kind of experiment: SRB growth inhibition assay, PC3 cells. Format: cell-based. How it is done:
as §1, §2

Series [4] has as its system three human tumour-derived cell lines (HT-29, MCF7, PC3). As to the kind of experiment: SRB growth inhibition, summary over the three human tumour cell lines. Type of series: cell-based. The settings on record: Homo sapiens; over HT-29, MCF7 and PC3. The method, then: as §1, §2
The nature of series [5]: 7-day oral gavage study, metabolic parameters, body weight and food consumption in CR SD rats. Type of series: in vivo, rat. To be noted: for Weight loss: 7 days; for Cholesterol (plasma) / Glucose (plasma) / Insulin (plasma) / Triglycerides (plasma): n=5; for Plasma glucose, % of control values: dose not stated. The method, then:
Two groups (n=5) of CR SD rats (approximately 300 g) were treated with 2 dose levels of perfluorinated compounds (15 and 25 mg/kg/day body weight). Animals were administered test substances, dissolved in corn oil, by oral gavage, daily for 7 days. One group of 20 CR SD rays was also treated with vehicle (corn oil) alone. Body weight and food consumption were monitored daily.
Twenty-four hours after the last dose the animals were killed by an increasing concentration of carbon dioxide. Blood was collected by cardiac puncture and plasma was prepared and stored at −70° C. until analysed.
Plasma was analysed for triglycerides, cholesterol, and glucose, using kits purchased from Sigma. Concentrations of plasma insulin were determined using a commercially available enzyme-immunoassay-based kit from Amersham Biosciences. All assays were carried out as specified by the manufacturer.

Series [6] has as its target T1, human PPAR-alpha ligand binding domain (Homo sapiens, UniProt Q07869).
T1 sequence (Q07869 179-468): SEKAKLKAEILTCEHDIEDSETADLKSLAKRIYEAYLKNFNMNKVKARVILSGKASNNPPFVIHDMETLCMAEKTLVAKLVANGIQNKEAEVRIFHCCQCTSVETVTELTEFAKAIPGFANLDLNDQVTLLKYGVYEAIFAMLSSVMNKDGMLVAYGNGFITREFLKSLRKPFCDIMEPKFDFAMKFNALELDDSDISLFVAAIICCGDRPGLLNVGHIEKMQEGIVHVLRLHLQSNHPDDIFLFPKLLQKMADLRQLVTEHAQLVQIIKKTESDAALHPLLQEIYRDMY
As to the kind of experiment: PPAR alpha ligand binding (displacement of DAUDA). To be noted: for Kd: PPAR Receptor Binding Kd Alpha (apparent Kd), DAUDA displacement.

Series [7] in a line: Plasma levels of PFOA after 11 days oral dosing in SD rats (LC/MS/MS). Type of series: in vivo, rat. The settings on record: 25 mg/kg oral daily for 11 days, 24 hours after final administration. How it is done:
The study consisted of one control group of 8 male CD Sprague Dawley rats (8-10-weeks old; obtained from Harlan, UK) and 4 test groups that contained 4 rats. Animals received powdered RM1 diet ad libitum for the duration of the study. […] All chemicals were dissolved in Mazola corn oil (at 2.5 mg/ml) and test compounds were administered at 10 ml/kg bodyweight. Control animal received Mazola corn oil only. All animals were sacrificed after 11 days. Animals were killed by exposure to rising concentrations of CO2, and blood was harvested into lithium/heparin tubes for plasma.
Rat plasma samples were denatured by adding acetonitrile, and the amount of perfluorooctanoic acid (PFOA) present was determined by LC/MS/MS.

Series [8] deals with T2, PPAR delta (Homo sapiens, UniProt Q03181).
T2 construct: 25 ng of vector DNA carrying PPAR alpha, delta or gamma; expressed in transfected cells; host or cells: COS-1 (African green monkey kidney cells)
T2 sequence (Q03181 1-441): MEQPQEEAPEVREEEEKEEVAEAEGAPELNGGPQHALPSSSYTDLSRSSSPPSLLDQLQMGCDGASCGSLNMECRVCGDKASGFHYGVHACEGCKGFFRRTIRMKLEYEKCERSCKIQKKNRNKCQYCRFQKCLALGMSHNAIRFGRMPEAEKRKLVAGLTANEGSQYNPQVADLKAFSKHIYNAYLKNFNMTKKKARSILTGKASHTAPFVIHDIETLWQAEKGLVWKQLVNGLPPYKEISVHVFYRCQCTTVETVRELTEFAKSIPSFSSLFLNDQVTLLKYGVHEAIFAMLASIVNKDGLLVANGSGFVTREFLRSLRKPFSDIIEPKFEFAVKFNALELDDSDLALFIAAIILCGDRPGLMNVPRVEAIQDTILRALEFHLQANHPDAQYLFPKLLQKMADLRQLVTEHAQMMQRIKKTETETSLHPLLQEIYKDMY
As to the kind of experiment: PPAR delta transactivation assay in COS-1 cells. Set-up: Fold activation of PPAR delta: dose or concentration left out as unconfirmed. Format: cell-based. To be noted: for Inhibition of activation of PPAR delta (by a factor of): transactivation assay; for Fold activation of PPAR delta: mean±SD n=3.

For series [9], the target named is T3, human PPAR-gamma ligand binding domain (Homo sapiens, UniProt P37231).
T3 sequence (P37231 202-505): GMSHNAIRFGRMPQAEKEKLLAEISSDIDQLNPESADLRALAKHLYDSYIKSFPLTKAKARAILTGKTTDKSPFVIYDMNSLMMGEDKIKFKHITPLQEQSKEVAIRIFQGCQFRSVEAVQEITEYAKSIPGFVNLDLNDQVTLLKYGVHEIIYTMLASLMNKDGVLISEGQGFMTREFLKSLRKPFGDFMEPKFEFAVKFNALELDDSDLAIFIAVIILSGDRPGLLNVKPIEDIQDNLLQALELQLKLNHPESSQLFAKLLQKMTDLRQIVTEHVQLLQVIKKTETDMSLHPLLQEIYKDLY
As to the kind of experiment: PPAR gamma ligand binding (displacement of cis-parinaric acid).

The mark [10] stands for this setting: Homo sapiens, PC-3, 48 hours exposure.
Setting [11] is: 15 mg/kg/day oral gavage 7 days.
[12] abbreviates: 25 mg/kg/day oral gavage 7 days.
Where [13] appears, read: 15 and 25 mg/kg/day, versus control.

As for `N.O=C(O)C(F)(F)C(F)(F)C(F)(F)C(F)(F)C(F)(F)C(F)(F)C(F)(F)F` [APFO, Ammonium perfluorooctanoate], the IC50 – broadly, the midpoint of a concentration-inhibition curve – in series [1] (Homo sapiens, HT-29, 48 h) is 293 µM. Half-maximal inhibition in series [2] (Homo sapiens, MCF7, 48 h) (IC50) was put at 211 µM. Besides, the IC50 in [3] (setting [10]) came to 215 µM. The same compound displayed an IC50 in [4] of 200 to 600 µM. Further, in series [5] (15 mg/kg), the Food consumption entry is given as “did not decrease further after day 6”; the “Plasma insulin, % of control values” amounted to 13.5%; the Weight loss is 1%. Also, in series [5] (setting [11]), the “Cholesterol (plasma)” value was 1.00 ± 0.36 mmol/L, the “Glucose (plasma)” value is 13.12 ± 0.74 mmol/L, the “Insulin (plasma)” value is 25.02 ± 20.27 ng/mL and the “Triglycerides (plasma)” value is 0.25 ± 0.07 mmol/L. For the same compound, in series [5] (25 mg/kg), the “Plasma cholesterol, % of control values” stood at 56.2%; the “Plasma insulin, % of control values” stood at 8.3%; the “Plasma triglycerides, % of control values” came out at 19.1%. This compound had a Weight loss in [5] (25 mg/kg (higher dose)) of 11%. Also, in [5] (setting [12]), the “Glucose (plasma)” value was 11.99 ± 1.87 mmol/L, the “Insulin (plasma)” value came out at 15.29 ± 9.72 ng/mL and the “Triglycerides (plasma)” value worked out at 0.34 ± 0.09 mmol/L. The “Bodyweight change” value in series [5] (15 and 25 mg/kg/day, continued till end of treatment) is recorded as “lost bodyweight after day 3”. Besides, in series [5] (setting [13]), the Food consumption entry is listed as “dose-related, decreases in food consumption”. In series [5], the “Plasma glucose, % of control values” is 72.6%. For the same compound, the Kd in series [6] worked out at 8 µM.

Regarding `CCOC(=O)C(F)(F)C(F)(F)C(F)(F)C(F)(F)C(F)(F)C(F)(F)C(F)(F)F` [EPOA, Ethylperfluorooctanoate], the “Plasma concentration of PFOA (free acid)” value in series [7] was “equimolar concentrations of PFOA”.

Consider `FC(F)(F)C(F)(F)C(F)(F)C(F)(F)C(F)(F)C(F)(F)C(F)(F)C(F)(F)F` [PFO, Perfluorooctane], for which, in [5] (setting [11]), the “Cholesterol (plasma)” value came out at 1.99 ± 0.46 mmol/L, the “Glucose (plasma)” value was 18.41 ± 1.41 mmol/L, the “Insulin (plasma)” value worked out at 99.58 ± 126.1 ng/mL and the “Triglycerides (plasma)” value turned out to be 1.03 ± 0.35 mmol/L. Further, in series [5] (25 mg/kg), the “Plasma glucose raised by” value turned out to be 3% and the “Plasma insulin, % of control values” amounted to 33.5%. Besides, in series [5] (setting [12]), the “Cholesterol (plasma)” value turned out to be 1.70 ± 0.11 mmol/L, the “Glucose (plasma)” value turned out to be 17.13 ± 2.37 mmol/L, the “Insulin (plasma)” value was found to be 61.81 ± 45.81 ng/mL and the “Triglycerides (plasma)” value came out at 2.09 ± 2.33 mmol/L.

In turn, `O=C(O)C(F)(F)C(F)(F)C(F)(F)C(F)(F)C(F)(F)C(F)(F)C(F)(F)F` [PFOA, Perfluorooctanoic acid] yielded an IC50 in series [1] of 398 µM. Also, in series [2], the IC50 was found to be 244 µM. Half-maximal inhibition in series [3] (48 hours exposure) (IC50) was put at 215 µM. Further, the “Inhibition of activation of PPAR delta (by a factor of)” value in series [8] amounted to 4. Also, in [5] (15 mg/kg), the “Plasma insulin, % of control values” worked out at 2.98% and the Weight loss was 9.4%. In series [5] (setting [11]), the “Cholesterol (plasma)” value was found to be 1.01 ± 0.086 mmol/L, the “Glucose (plasma)” value is 10.30 ± 1.23 mmol/L, the “Insulin (plasma)” value is 5.51 ± 8.88 ng/mL and the “Triglycerides (plasma)” value turned out to be 0.37 ± 0.04 mmol/L. Besides, in series [5] (25 mg/kg), the “Plasma cholesterol, % of control values” is 49.2%; the “Plasma insulin, % of control values” is on record as 30.74%; the “Plasma triglycerides, % of control values” came out at 16.8%. In series [5] (25 mg/kg, after day 6, terminated early), this compound showed a Bodyweight lost of 11.7%. For the same compound, in series [5] (setting [12]), the “Cholesterol (plasma)” value stood at 0.98 ± 0.35 mmol/L, the “Glucose (plasma)” value came out at 10.01 ± 3.90 mmol/L, the “Insulin (plasma)” value worked out at 56.76 ± 46.5 ng/mL and the “Triglycerides (plasma)” value amounted to 0.3 ± 0.13 mmol/L. Also, the Food consumption entry in series [5] (setting [13]) is recorded as “dose-related, decreases in food consumption”. The “Plasma glucose, % of control values” in series [5] came to 60%. Moreover, the Kd in series [6] turned out to be 6 µM.

Regarding `O=C(O)C(F)(F)C(F)(F)C(F)(F)C(F)(F)C(F)(F)C(F)(F)C(=O)O` [PFSA, Perfluorosuberic acid (C8)], in series [1] (Homo sapiens, HT-29, 48 h), the IC50 was > 3000 µM. Further, in [2] (Homo sapiens, MCF7, 48 h), the IC50 is > 3000 µM. Also, the IC50 in series [3] (setting [10]) is > 3000 µM. For the same compound, in [4], the IC50 was ~3000 µM. Further, in series [8], the “Fold activation of PPAR delta” value was found to be 0.62 ± 0.31 fold and the “Inhibition of activation of PPAR delta (by a factor of)” value came out at 1.6. Further, the “Plasma insulin, % of control values” in series [5] (15 mg/kg) is on record as 28.7%. Further, in series [5] (setting [11]), the “Cholesterol (plasma)” value was determined as 1.76 ± 0.15 mmol/L, the “Glucose (plasma)” value was found to be 16.41 ± 2.09 mmol/L, the “Insulin (plasma)” value worked out at 52.96 ± 26.55 ng/mL and the “Triglycerides (plasma)” value turned out to be 0.95 ± 0.42 mmol/L. In [5] (setting [12]), the “Cholesterol (plasma)” value amounted to 1.92 ± 0.36 mmol/L, the “Glucose (plasma)” value worked out at 15.9 ± 1.43 mmol/L, the “Insulin (plasma)” value was determined as 109 ± 103.2 ng/mL and the “Triglycerides (plasma)” value amounted to 1.22 ± 0.56 mmol/L. In series [6], the “Reduction in binding affinity for PPAR alpha compared to PFOA” value is 7 fold and the Kd turned out to be 44 µM. In [9], the Kd came out at 13 µM and the “Reduction in binding affinity for PPAR gamma compared to PFOA” value was ~40 fold.

Take `CCCCC[C@H](O)/C=C/[C@@H]1[C@H]2C/C(=C/CCCC(=O)O)C[C@H]2C[C@H]1O` [carbaprostacyclin, reference compound]: the “Fold activation of PPAR delta” value in series [8] is 2.17 ± 0.42 fold.
